Assay results published in PubChem BioAssay (NCI).
“And” between values parts separate entries of the source, which are not always exact repeats. Equal entries are not always repeated.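 These data come from cells grown in 96-well plates and exposed to compound for 48 hours at five concentrations. GI50: concentration for 50% inhibition of growth. TGI: concentration producing complete growth inhibition.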

Tests used:
Assay in all cases: NCI tumour cell line growth inhibition, 48 h
SNB-19 CNS = test system: SNB-19 CNS
SK-OV-3 ovarian = test system: SK-OV-3 ovarian
HOP-92 NSCLC = test system: HOP-92 NSCLC
UACC-257 melanoma = test system: UACC-257 melanoma
OVCAR-5 ovarian = test system: OVCAR-5 ovarian
SF-539 CNS = test system: SF-539 CNS
MDA-MB-435 = test system: MDA-MB-435
MALME-3M melanoma = test system: MALME-3M melanoma
HT29 colon = test system: HT29 colon
RXF 393 renal = test system: RXF 393 renal

SMILES	GI50 (SNB-19 CNS)	TGI (SNB-19 CNS)	GI50 (SK-OV-3 ovarian)	TGI (SK-OV-3 ovarian)	GI50 (HOP-92 NSCLC)	TGI (HOP-92 NSCLC)	GI50 (UACC-257 melanoma)	TGI (UACC-257 melanoma) [µM]	GI50 (OVCAR-5 ovarian)	TGI (OVCAR-5 ovarian)	GI50 (SF-539 CNS)	TGI (SF-539 CNS)	GI50 (MDA-MB-435) [µM]	TGI (MDA-MB-435) [µM]	GI50 (MALME-3M melanoma)	TGI (MALME-3M melanoma)	GI50 (HT29 colon)	TGI (HT29 colon)	GI50 (RXF 393 renal)	TGI (RXF 393 renal)
Cc1cc(Nc2ncc(Cl)c(Nc3ccccc3S(=O)(=O)C(C)C)n2)c(OC(C)C)cc1C1CCNCC1	1.73 µM	3.14 µM	2.02 µM and 1.67 µM	4.39 µM and 3.03 µM	0.346 µM	1.55 µM	1.24 µM	2.81	1.14 µM and 0.714 µM and 0.644 µM	2.38 µM and 2.13 µM and 2.15 µM	1.62 µM	2.99 µM	0.944	2.16	0.857 µM and 0.265 µM	2.25 µM and 1.25 µM	0.237 µM and 0.304 µM	1.24 µM and 1.27 µM	1.27 µM	2.64 µM
Nc1nc(F)nc2c1ncn2C1OC(COP(=O)(O)O)C(O)C1O (stereo not given)	–	1000 µM	–	292 µM	–	71.8 µM	–	813	–	617 µM	–	859 µM	–	218	–	254 µM	–	> 1250 µM	–	413 µM
O=C(Nc1nc(-c2ccc(Cl)cc2)cs1)c1ccc(O)c(O)c1	3.82 µM	19.7 µM	6.83 µM	22.4 µM	2.67 µM	9.18 µM	6.29 µM	24.3	14.7 µM	36.1 µM	3.92 µM	14.8 µM	3.18	14.4	5.73 µM	22.2 µM	11.6 µM	24.7 µM	3.82 µM	17 µM
C/C=C/C/C=C/CCC(=O)C1OC1C(N)=O (stereo not given)	–	32.1 µM	–	81.8 µM	–	29.4 µM	–	31.1	–	32.8 µM	–	30.6 µM	–	28.3	–	32.9 µM	–	33.1 µM	–	21.7 µM
CC(=O)NC(Cc1c[nH]c2ccccc12)C(=O)O (stereo not given)	–	> 100 µM	–	> 100 µM	–	> 100 µM	–	> 100	–	> 100 µM	–	–	–	> 100	–	> 100 µM	–	> 100 µM	–	> 100 µM
OCC1OC(O)C(N=Cc2ccc3c(c2)OCO3)C(O)C1O (stereo not given)	–	> 100 µM	–	> 100 µM	–	> 100 µM	–	> 100	–	> 100 µM	–	> 100 µM	–	> 100	–	> 100 µM	–	> 100 µM	–	> 100 µM
CCOC(=O)c1ccc2[nH]c(Cc3[nH]c4ccc(C(=O)OCC)cc4c3C)c(C)c2c1	3.9 µM	25.9 µM	2.04 µM	16.6 µM	1.95 µM	8.99 µM	9.4 µM	46.1	8.94 µM	53.8 µM	1.37 µM	13.3 µM	3.53	48.8	3.73 µM	17.7 µM	0.821 µM	8.2 µM	2.75 µM	14.7 µM
O=S(=O)(NCCNc1cc(-c2cn(-c3ccccc3)nc2-c2cccc(O)c2)ccn1)c1ccc(F)cc1	3.72 µM	31.7 µM	2.85 µM	12.3 µM	2.03 µM	8.48 µM	2.85 µM	7.14	1.93 µM	5.69 µM	1.71 µM	3.95 µM	2.3	7.2	1.73 µM	3.88 µM	1.99 µM	4.79 µM	2.09 µM	7.54 µM
COc1cc2c(cc1OCCCCCN1CCN(c3cc(=O)oc4c(C)c(OC)ccc34)CC1)N=C[C@@H]1CCCN1C2=O	< 0.0143 µM	8.82 µM	0.0435 µM	12.8 µM	< 0.01 µM	< 0.0141 µM	–	–	< 0.0123 µM	0.851 µM	< 0.0112 µM	0.128 µM	< 0.0112	0.0262	0.0182 µM	0.0531 µM	< 0.01 µM	0.0428 µM	< 0.01 µM	< 0.0127 µM
O=C(c1cccs1)c1c(C(F)(F)F)n([O-])c2cc(C(F)(F)F)ccc2[n+]1=O	0.348 µM	0.707 µM	0.758 µM	1.87 µM	0.172 µM	0.342 µM	0.662 µM	1.82	0.432 µM	1.37 µM	0.195 µM	0.409 µM	0.315	0.877	0.347 µM	0.772 µM	0.193 µM	0.419 µM	0.184 µM	0.351 µM
COc1ccc(/C(Cl)=C(\C=O)c2cc(OC)c(OC)c(OC)c2)cc1OC	–	> 100 µM	–	> 100 µM	–	> 100 µM	–	> 100	–	> 100 µM	–	87.9 µM	–	> 100	–	> 92.6 µM	–	87.7 µM	–	> 100 µM
Nc1c(C(=O)Nc2cccc3ccccc23)sc2nc3c(cc12)CCCCC3	0.662 µM	> 50 µM	1.47 µM	> 50 µM	0.375 µM	> 50 µM	17.1 µM	> 50	2.48 µM	> 50 µM	0.458 µM	> 50 µM	0.116	0.32	31.9 µM	> 50 µM	1.05 µM	4 µM	0.992 µM	> 50 µM
Nc1ccn(C2OC(COP(=O)(O)O)C(O)C2O)c(=O)n1 (stereo not given)	–	> 100 µM	–	> 100 µM	–	> 100 µM	–	> 100	–	> 100 µM	–	> 30.2 µM	–	> 100	–	> 100 µM	–	> 100 µM	–	> 94.7 µM
Cc1cc(S(=O)(=O)/N=C(\N)n2nc(C)c(C)c2C)c(SCc2ccccc2)cc1Cl	> 100 µM	> 100 µM	> 100 µM	> 100 µM	3.17 µM	> 100 µM	63.8 µM	> 100	> 100 µM	> 100 µM	> 100 µM	> 100 µM	3.23	> 100	> 100 µM	> 100 µM	> 100 µM	> 100 µM	58.6 µM	> 100 µM
CCC[CH2][Sn]([CH2]CCC)([O]C(=O)c1cccc(F)c1F)[O][Sn]([CH2]CCC)([CH2]CCC)[O]C(=O)c1cccc(F)c1F	0.573 µM	1.7 µM	0.915 µM	2.23 µM	0.13 µM	0.399 µM	0.222 µM	0.728	1.47 µM	2.9 µM	0.208 µM	0.722 µM	0.13	1.09	0.118 µM	0.284 µM	0.812 µM	2.07 µM	0.0216 µM	0.105 µM
O=C1OC2(c3ccccc31)c1cc(I)c(O)c(I)c1Oc1c2cc(I)c(O)c1I	–	> 100 µM	–	> 100 µM	–	> 100 µM	–	> 100	–	> 100 µM	–	> 100 µM	–	> 100	–	> 100 µM	–	> 100 µM	–	> 100 µM
CC1=Cc2cc3[n-]c(cc4nc(cc5[n-]c(cc1n2)c(C)c5CCC(=O)O)C(CCC(=O)O)=C4C)cc3C.[Cu+2]	> 1 µM and 11.9 µM	> 1 µM and 32.9 µM	> 1 µM and 18.8 µM	> 1 µM and 41.9 µM	> 1 µM and 13.6 µM	> 1 µM and 34.3 µM	> 1 µM and 40.8 µM	> 85.4	> 100 µM	> 100 µM	< 1 µM and 3.52 µM	> 1 µM and 11.6 µM	55.1	> 100	> 1 µM and 7.39 µM	> 1 µM and 18.6 µM	> 100 µM	> 100 µM	> 1 µM and 15.4 µM	> 1 µM and 33.9 µM
O=C(Nc1cccc(-c2nc3ccccc3[nH]2)c1)c1cccc(NC(=O)c2ccco2)c1	2.86 µM	8.19 µM	2.35 µM	4.42 µM	2.63 µM	5.89 µM	2.3 µM	5.34	3.1 µM	11.1 µM	1.49 µM	2.88 µM	1.67	3.04	2.11 µM	4.34 µM	1.91 µM	3.4 µM	1.51 µM	3.55 µM
CCN(CC)CCCN1C(=O)c2c(c(C)c3c(oc4cc(O)ccc43)c2C)C1=O	1.75 µM	3.35 µM	1.73 µM	3.2 µM	1.48 µM	3.02 µM	1.81 µM	3.62	1.72 µM	3.22 µM	1.77 µM	3.18 µM	1.76	3.22	1.83 µM	3.51 µM	1.39 µM	2.85 µM	1.54 µM	3.24 µM
COc1ccc(C(=O)c2ccc(OC)cc2OC)cc1	6.12 µM	> 100 µM	2.66 µM	8.81 µM	1.84 µM	53.9 µM	5 µM	> 100	8.79 µM	> 100 µM	2.81 µM	22.4 µM	0.361	2.34	5.83 µM	> 100 µM	2.92 µM	24.4 µM	1.56 µM	6.15 µM
COc1cc2c3c(n(CCCn4ccnc4)c(=O)c2cc1OC)-c1ccccc1C3=O	< 0.0285 µM	> 69 µM	1.13 µM	–	0.0343 µM	3 µM	–	0.199	0.26 µM	1.25 µM	< 0.0373 µM	0.441 µM	0.0417	0.779	1.06 µM	> 60.8 µM	< 0.0406 µM	0.603 µM	< 0.01 µM	–
O=C1CN2CCC1C/C2=C\c1ccnc2c(Cl)cccc12 (stereo not given)	> 100 µM	> 100 µM	> 100 µM	> 100 µM	37 µM	> 100 µM	59.7 µM	> 100	> 100 µM	> 100 µM	> 100 µM	> 100 µM	75.6	> 100	91.9 µM	> 100 µM	42.6 µM	> 100 µM	> 100 µM	> 100 µM
O=[N+]([O-])c1ccccc1/C=C/C=C1c2ccccc2-c2ccccc21	> 100 µM	> 100 µM	> 100 µM	> 100 µM	> 100 µM	> 100 µM	> 100 µM	> 100	> 100 µM	> 100 µM	> 100 µM	> 100 µM	12.4	> 100	> 100 µM	> 100 µM	> 100 µM	> 100 µM	> 100 µM	> 100 µM
C[C@@H](Oc1cc(-c2cnn(C3CC4(CCNCC4)C3)c2)cnc1N)c1c(F)ccc(Cl)c1Cl	4.29 µM	18.1 µM	2.43 µM	6.75 µM	0.54 µM	3.13 µM	1.47 µM	2.99	1.39 µM	6.65 µM	1.51 µM	2.96 µM	1.06	2.39	1.29 µM	3.02 µM	0.446 µM	2.17 µM	1.35 µM	2.73 µM
Cc1cccc(Oc2ccc(Nc3ncnc4ccc(NC(=O)CN5CCN(C)CC5)cc34)cc2Cl)c1	1.95 µM	4.79 µM	–	–	1.17 µM	2.59 µM	1.9 µM	3.85	1.66 µM	3.2 µM	1.73 µM	3.19 µM	1.59	2.99	1.59 µM	3.16 µM	–	–	1.61 µM	3.09 µM
COc1cc(N)ccc1Nc1c2ccccc2nc2ccccc12	15.9 µM	38.1 µM	12.5 µM	29.4 µM	4.59 µM	23 µM	20.2 µM	44	15 µM	29.9 µM	12.1 µM	26.5 µM	17	33.2	14.6 µM	35.1 µM	3.29 µM	11 µM	11.5 µM	27 µM
Cc1c(N(C(=O)c2cc(-c3cc(Cl)ccc3C(=O)N3Cc4ccccc4C[C@H]3CN3CCOCC3)n(C)c2C)c2ccc(O)cc2)cc(C#N)n1C	13.8 µM	> 100 µM	17.9 µM	> 100 µM	5.24 µM	22.6 µM	20.1 µM	> 100	44.9 µM	> 100 µM	20.6 µM	> 100 µM	16.5	40.7	20.8 µM	64.3 µM	18.7 µM	> 100 µM	3.88 µM	17.6 µM
